Values quoted from earlier work, collected in patent publication US20070292407A1, “Methods of treatment for meconium aspiration syndrome” (The Board of Trustees Operating Michigan State University, priority 2005, published 2007).

Conditions: in vitro; Burke et al., J Pediatr Surg 2002

Structure (SMILES): CC(=O)N[C@@H](CS)C(=O)O [N-Acetylcysteine, N-acetyl-L-cysteine]
- reduction of meconium viscosity: significant reduction of meconium viscosity
